From PubChem BioAssay AID248 (DTP/NCI, 2004)
“And” between values parts separate entries of the source, which are not always exact repeats. Equal entries are not always repeated. Toxic doses and inconclusive results are not listed. Rule as the data show it: active = T/C of 150% or more; inactive = T/C below 125%.

System: L1210 leukemia ip in BDF1 mice, survival T/C
Experiment: NCI In Vivo Anticancer Drug Screen. Data for tumor model L1210 Leukemia (intraperitoneal) in B6D2F1 (BDF1) mice
Conditions: endpoint: mean survival time, higher = longer survival
How it was run: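 Survival endpoint. Drug-treated group vs vehicle group, expressed as T divided by C. Tumor passaged by transplantation.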

[1] = dose: 200.0 mg/kg/injection, schedule: Q04DX002 (ip), vehicle: saline
[2] = dose: 400.0 mg/kg/injection, schedule: Q04DX002 (ip), vehicle: saline
[3] = dose: 50.0 mg/kg/injection, schedule: Q01DX009 (ip), vehicle: water
[4] = dose: 100.0 mg/kg/injection, schedule: Q01DX009 (ip), vehicle: water
[5] = dose: 100.0 mg/kg/injection, schedule: Q04DX003 (ip), vehicle: Klucel (hydroxypropylcellulose) (HPC)
[6] = dose: 100.0 mg/kg/injection, schedule: Q01DX009 (ip), vehicle: Klucel (hydroxypropylcellulose) (HPC)
[7] = dose: 200.0 mg/kg/injection, schedule: Q01DX009 (ip), vehicle: Klucel (hydroxypropylcellulose) (HPC)
[8] = dose: 75.0 mg/kg/injection, schedule: Q01DX001 (ip), vehicle: other
[9] = dose: 150.0 mg/kg/injection, schedule: Q01DX001 (ip), vehicle: other

Measured: T/C

CCCCCCCCCN1C(=O)c2ccccc2S1(=O)=O
inactive: dose: 222.0 mg/kg/injection, schedule: Q01DX Z (ip), vehicle: saline 100 % of control | dose: 333.0 mg/kg/injection, schedule: Q01DX Z (ip), vehicle: saline 97 % of control | dose: 500.0 mg/kg/injection, schedule: Q01DX Z (ip), vehicle: saline 91 % of control

O=C(O)c1ccccc1Nc1ccccc1
inactive: dose: 100.0 mg/kg/injection, schedule: Q01DX001 (ip), vehicle: Klucel (hydroxypropylcellulose) (HPC) 102 % of control | dose: 200.0 mg/kg/injection, schedule: Q01DX001 (ip), vehicle: Klucel (hydroxypropylcellulose) (HPC) 102 % of control | dose: 400.0 mg/kg/injection, schedule: Q01DX001 (ip), vehicle: Klucel (hydroxypropylcellulose) (HPC) 97 % of control

CC(C)=CCCC(C)C/C=N\N=C(N)N (stereo unspecified)
inactive: dose: 15.0 mg/kg/injection, schedule: Q01DX Z (ip), vehicle: carboxymethylcellulose (CMC) 95 % of control | dose: 30.0 mg/kg/injection, schedule: Q01DX Z (ip), vehicle: carboxymethylcellulose (CMC) 98 % of control | dose: 30.0 mg/kg/injection, schedule: Q01DX Z (oral), vehicle: carboxymethylcellulose (CMC) 118 % of control | dose: 60.0 mg/kg/injection, schedule: Q01DX Z (ip), vehicle: carboxymethylcellulose (CMC) 97 % of control | dose: 60.0 mg/kg/injection, schedule: Q01DX Z (oral), vehicle: carboxymethylcellulose (CMC) 101 % of control | dose: 120.0 mg/kg/injection, schedule: Q01DX Z (oral), vehicle: carboxymethylcellulose (CMC) 97 % of control | dose: 240.0 mg/kg/injection, schedule: Q01DX Z (oral), vehicle: carboxymethylcellulose (CMC) 101 % of control

C[N+](C)(C)CCOC(=O)C1C2CC3OC(=O)C1C3C2 (stereo unspecified)
inactive: dose: 100.0 mg/kg/injection, schedule: Q04DX003 (ip), vehicle: saline 98 % of control | dose: 200.0 mg/kg/injection, schedule: Q04DX003 (ip), vehicle: saline 102 % of control | dose: 400.0 mg/kg/injection, schedule: Q04DX003 (ip), vehicle: saline 96 % of control

Cc1c2ccc3ccccc3c2c(C)[n+]2ccccc12
inactive: dose: 2.0 mg/kg/injection, schedule: Q01DX Z (ip), vehicle: carboxymethylcellulose (CMC) 122 % of control | dose: 4.0 mg/kg/injection, schedule: Q01DX Z (ip), vehicle: carboxymethylcellulose (CMC) 106 % of control | dose: 8.0 mg/kg/injection, schedule: Q01DX Z (ip), vehicle: carboxymethylcellulose (CMC) 93 % of control

CC1(C(O)CO)OCCO1 (stereo unspecified)
inactive: dose: 25.0 mg/kg/injection, schedule: Q04DX002 (ip), vehicle: saline 110 % of control | dose: 50.0 mg/kg/injection, schedule: Q04DX002 (ip), vehicle: saline 103 % of control | [1] 107 % of control and 110 % of control | [2] 117 % of control

Nc1ccc(S(=O)(=O)Nc2ccc(Nc3c4ccccc4nc4ccccc34)cc2)cc1
inactive: dose: 3.0 mg/kg/injection, schedule: Q01DX009 (ip), vehicle: saline with Tween-80 122 % of control | dose: 6.0 mg/kg/injection, schedule: Q01DX009 (ip), vehicle: saline with Tween-80 120 % of control

O=C1OCC/C1=C\NCCCCCCCCN/C=C1\CCOC1=O
inactive: dose: 100.0 mg/kg/injection, schedule: Q04DX002 (ip), vehicle: Klucel (hydroxypropylcellulose) (HPC) 97 % of control | dose: 200.0 mg/kg/injection, schedule: Q04DX002 (ip), vehicle: Klucel (hydroxypropylcellulose) (HPC) 108 % of control | dose: 400.0 mg/kg/injection, schedule: Q04DX002 (ip), vehicle: Klucel (hydroxypropylcellulose) (HPC) 97 % of control

O=Cc1ccc(Oc2ccc([N+](=O)[O-])cc2[N+](=O)[O-])cc1
inactive: dose: 25.0 mg/kg/injection, schedule: Q01DX009 (ip), vehicle: water 96 % of control | [3] 102 % of control | [4] 104 % of control | dose: 200.0 mg/kg/injection, schedule: Q01DX009 (ip), vehicle: water 95 % of control | dose: 400.0 mg/kg/injection, schedule: Q01DX009 (ip), vehicle: water 98 % of control

Cc1ccnc2c3c4c(cc12)c(C)cc(=O)n4CO3
inactive: dose: 75.0 mg/kg/injection, schedule: Q01DX001 (ip), vehicle: Klucel (hydroxypropylcellulose) (HPC) 104 % of control | dose: 150.0 mg/kg/injection, schedule: Q01DX001 (ip), vehicle: Klucel (hydroxypropylcellulose) (HPC) 95 % of control | dose: 150.0 mg/kg/injection, schedule: Q01DX009 (ip), vehicle: Klucel (hydroxypropylcellulose) (HPC) 114 % of control | dose: 300.0 mg/kg/injection, schedule: Q01DX001 (ip), vehicle: Klucel (hydroxypropylcellulose) (HPC) 98 % of control

c1ccc(C2(c3ccccc3)CC([P+](c3ccccc3)(c3ccccc3)c3ccccc3)=NN2CC[P+](c2ccccc2)(c2ccccc2)c2ccccc2)cc1
inactive: dose: 1.56 mg/kg/injection, schedule: Q01DX001 (ip), vehicle: saline 107 % of control | dose: 3.12 mg/kg/injection, schedule: Q01DX001 (ip), vehicle: saline 91 % of control | dose: 6.25 mg/kg/injection, schedule: Q01DX001 (ip), vehicle: saline 108 % of control and 91 % of control

O=C(CCl)NC1=C(N2CC2)C(=O)c2ccccc2C1=O
inactive: dose: 50.0 mg/kg/injection, schedule: Q04DX003 (ip), vehicle: Klucel (hydroxypropylcellulose) (HPC) 93 % of control | [5] 91 % of control

CCc1ccccc1NC(=O)Nc1nccs1
inactive: [6] 116 % of control | [7] 110 % of control

O=[N+]([O-])c1ccc(S(=O)(=O)N2CCN(S(=O)(=O)c3ccc([N+](=O)[O-])cc3)C2)cc1
inactive: dose: 50.0 mg/kg/injection, schedule: Q01DX009 (ip), vehicle: Klucel (hydroxypropylcellulose) (HPC) 93 % of control | [6] 87 % of control and 91 % of control | [5] 91 % of control | [7] 93 % of control | dose: 200.0 mg/kg/injection, schedule: Q04DX003 (ip), vehicle: Klucel (hydroxypropylcellulose) (HPC) 94 % of control | dose: 400.0 mg/kg/injection, schedule: Q01DX009 (ip), vehicle: Klucel (hydroxypropylcellulose) (HPC) 101 % of control | dose: 400.0 mg/kg/injection, schedule: Q04DX003 (ip), vehicle: Klucel (hydroxypropylcellulose) (HPC) 98 % of control

CC(COC(=O)c1ccccc1)NC1CCCC1 (stereo unspecified)
inactive: [8] 96 % of control | [9] 108 % of control | dose: 300.0 mg/kg/injection, schedule: Q01DX001 (ip), vehicle: other 107 % of control

O=C(O)Cc1ccc([N+](=O)[O-])cc1
inactive: dose: 100.0 mg/kg/injection, schedule: Q01DX009 (ip), vehicle: saline with Tween-80 90 % of control | dose: 200.0 mg/kg/injection, schedule: Q01DX009 (ip), vehicle: saline with Tween-80 93 % of control | dose: 400.0 mg/kg/injection, schedule: Q01DX009 (ip), vehicle: saline with Tween-80 94 % of control

CC(C)(C)C1=CC(=O)C=CC1=O
inactive: [3] 93 % of control | dose: 100.0 mg/kg/injection, schedule: Q01DX001 (ip), vehicle: water 100 % of control | [4] 97 % of control | dose: 200.0 mg/kg/injection, schedule: Q01DX001 (ip), vehicle: water 102 % of control

O=C(NCCN1CCCCC1)C(O)(c1ccccc1)C1CCCCC1 (stereo unspecified)
inactive: [8] 97 % of control | [9] 100 % of control

COc1ccc(CCN2C(=O)c3cccc4c(Br)ccc(c34)C2=O)cc1
inactive: dose: 100.0 mg/kg/injection, schedule: Q04DX002 (ip), vehicle: saline 93 % of control | [1] 93 % of control | [2] 97 % of control
